Results published in PubChem BioAssay (NCI).
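Assay format: 96-well plates, 48-hour exposure. Definition used: TGI = concentration required for complete inhibition of growth.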

How the values were obtained:
Assay in all cases: NCI tumour cell line growth inhibition, 48 h
HCT-116 colon = tested on: HCT-116 colon
OVCAR-3 ovarian = tested on: OVCAR-3 ovarian
DMS 114 small cell lung = tested on: DMS 114 small cell lung
K-562 leukemia = tested on: K-562 leukemia
SF-268 CNS = tested on: SF-268 CNS
SK-MEL-2 melanoma = tested on: SK-MEL-2 melanoma
SF-295 CNS = tested on: SF-295 CNS
HCT-15 colon = tested on: HCT-15 colon
COLO 205 colon = tested on: COLO 205 colon
UACC-257 melanoma = tested on: UACC-257 melanoma
U251 CNS = tested on: U251 CNS
EKVX NSCLC = tested on: EKVX NSCLC
DMS 273 small cell lung = tested on: DMS 273 small cell lung
SW-620 colon = tested on: SW-620 colon
NCI-H23 lung = tested on: NCI-H23 lung
MALME-3M melanoma = tested on: MALME-3M melanoma
SN12K1 renal = tested on: SN12K1 renal
HOP-18 NSCLC = tested on: HOP-18 NSCLC
CCRF-CEM leukemia = tested on: CCRF-CEM leukemia
SN12C renal = tested on: SN12C renal
KM12 colon = tested on: KM12 colon
P388/ADR leukemia = tested on: P388/ADR leukemia
MOLT-4 leukemia = tested on: MOLT-4 leukemia
SF-539 CNS = tested on: SF-539 CNS
NCI/ADR-RES ovarian = tested on: NCI/ADR-RES ovarian
NCI-H460 lung = tested on: NCI-H460 lung
HL-60(TB) leukemia = tested on: HL-60(TB) leukemia
SNB-19 CNS = tested on: SNB-19 CNS
XF 498 CNS = tested on: XF 498 CNS
HCC-2998 colon = tested on: HCC-2998 colon
SK-MEL-5 melanoma = tested on: SK-MEL-5 melanoma
LOX IMVI melanoma = tested on: LOX IMVI melanoma
NCI-H522 lung = tested on: NCI-H522 lung
CAKI-1 renal = tested on: CAKI-1 renal
UO-31 renal = tested on: UO-31 renal
RPMI-8226 leukemia = tested on: RPMI-8226 leukemia
A549 NSCLC = tested on: A549 NSCLC
SNB-78 CNS = tested on: SNB-78 CNS
M19-MEL melanoma = tested on: M19-MEL melanoma
HT29 colon = tested on: HT29 colon
SK-OV-3 ovarian = tested on: SK-OV-3 ovarian
DLD-1 colon = tested on: DLD-1 colon
OVCAR-8 ovarian = tested on: OVCAR-8 ovarian
NCI-H226 lung = tested on: NCI-H226 lung
HOP-62 NSCLC = tested on: HOP-62 NSCLC
SNB-75 CNS = tested on: SNB-75 CNS
UACC-62 melanoma = tested on: UACC-62 melanoma
MCF7 breast = tested on: MCF7 breast
IGROV1 ovarian = tested on: IGROV1 ovarian
KM20L2 colon = tested on: KM20L2 colon
A498 renal = tested on: A498 renal
OVCAR-5 ovarian = tested on: OVCAR-5 ovarian
HOP-92 NSCLC = tested on: HOP-92 NSCLC
OVCAR-4 ovarian = tested on: OVCAR-4 ovarian

Q: `CC1[C@@H]2CC=C3C4CCC5Cc6nc7c(nc6C[C@@]5(C)C4CC(=O)[C@]32CO[C@@]1(O)C(O)CC(C)(C)O)CC1CCC2C3=C[C@H]4O[C@@]5(O[C@@](C)(CO)C[C@@H]5O)C(C)[C@@]4(O)[C@]3(C)[C@@H](O)CC2[C@]1(C)C7` (some centres undefined) was tested. Which TGI (HCT-116 colon) did it give?
A: 501 nM

Q: What about the TGI (OVCAR-3 ovarian) of the same compound?
A: 2360 nM

Q: What about the TGI (DMS 114 small cell lung) of the same compound?
A: 47.1 nM

Q: And the TGI (K-562 leukemia)?
A: 434 nM

Q: What about the TGI (SF-268 CNS) of the same compound?
A: 124 nM

Q: And the TGI (SK-MEL-2 melanoma)?
A: 89.1 nM

Q: And the TGI (SF-295 CNS)?
A: 0.713 nM

Q: What about the TGI (HCT-15 colon) of the same compound?
A: 330 nM

Q: What about the TGI (COLO 205 colon) of the same compound?
A: 60.8 nM

Q: What about the TGI (UACC-257 melanoma) of the same compound?
A: 112 nM

Q: And the TGI (U251 CNS)?
A: 34.5 nM

Q: What about the TGI (EKVX NSCLC) of the same compound?
A: 47.9 nM

Q: And the TGI (DMS 273 small cell lung)?
A: 1.74 nM

Q: And the TGI (SW-620 colon)?
A: 56.4 nM

Q: And the TGI (NCI-H23 lung)?
A: 27.2 nM

Q: And the TGI (MALME-3M melanoma)?
A: 91.1 nM

Q: And the TGI (SN12K1 renal)?
A: 406 nM

Q: And the TGI (HOP-18 NSCLC)?
A: 739 nM

Q: And the TGI (CCRF-CEM leukemia)?
A: 29.4 nM

Q: What about the TGI (SN12C renal) of the same compound?
A: 2900 nM

Q: What about the TGI (KM12 colon) of the same compound?
A: 571 nM

Q: What about the TGI (P388/ADR leukemia) of the same compound?
A: 89.1 nM

Q: What about the TGI (MOLT-4 leukemia) of the same compound?
A: 376 nM

Q: What about the TGI (SF-539 CNS) of the same compound?
A: 42.3 nM

Q: And the TGI (NCI/ADR-RES ovarian)?
A: 2740 nM

Q: And the TGI (NCI-H460 lung)?
A: 36.4 nM

Q: What about the TGI (HL-60(TB) leukemia) of the same compound?
A: 58.1 nM

Q: And the TGI (SNB-19 CNS)?
A: 329 nM

Q: And the TGI (XF 498 CNS)?
A: 50.2 nM

Q: And the TGI (HCC-2998 colon)?
A: 832 nM

Q: What about the TGI (SK-MEL-5 melanoma) of the same compound?
A: 46.9 nM

Q: And the TGI (LOX IMVI melanoma)?
A: 91.4 nM

Q: And the TGI (NCI-H522 lung)?
A: 124 nM

Q: What about the TGI (CAKI-1 renal) of the same compound?
A: 417 nM

Q: What about the TGI (UO-31 renal) of the same compound?
A: 83.6 nM

Q: And the TGI (RPMI-8226 leukemia)?
A: 45 nM

Q: And the TGI (A549 NSCLC)?
A: 383 nM

Q: And the TGI (SNB-78 CNS)?
A: 483 nM

Q: What about the TGI (M19-MEL melanoma) of the same compound?
A: 729 nM

Q: What about the TGI (HT29 colon) of the same compound?
A: 48.4 nM

Q: What about the TGI (SK-OV-3 ovarian) of the same compound?
A: 27.9 nM

Q: And the TGI (DLD-1 colon)?
A: 1150 nM

Q: And the TGI (OVCAR-8 ovarian)?
A: 3.6 µM

Q: What about the TGI (NCI-H226 lung) of the same compound?
A: 376 nM

Q: What about the TGI (HOP-62 NSCLC) of the same compound?
A: 2.48 nM

Q: What about the TGI (SNB-75 CNS) of the same compound?
A: 3.13 nM

Q: And the TGI (UACC-62 melanoma)?
A: 10.8 nM

Q: And the TGI (MCF7 breast)?
A: 192 nM

Q: What about the TGI (IGROV1 ovarian) of the same compound?
A: 736 nM

Q: And the TGI (KM20L2 colon)?
A: 137 nM

Q: And the TGI (A498 renal)?
A: 11.2 nM

Q: What about the TGI (OVCAR-5 ovarian) of the same compound?
A: 62.8 nM

Q: And the TGI (HOP-92 NSCLC)?
A: 1120 nM

Q: And the TGI (OVCAR-4 ovarian)?
A: 1290 nM
